For orientation: Ki means a dissociation constant, usually derived from enzyme kinetics or from competition with a known ligand.

These results are taken from ChEMBL document CHEMBL2440070, “Synthesis and evaluation of novel azetidine analogs as potent inhibitors of vesicular [3H]dopamine uptake” (Bioorg Med Chem, 2013).

Sequence of Synaptic vesicular amine transporter (Q01827 whole entry): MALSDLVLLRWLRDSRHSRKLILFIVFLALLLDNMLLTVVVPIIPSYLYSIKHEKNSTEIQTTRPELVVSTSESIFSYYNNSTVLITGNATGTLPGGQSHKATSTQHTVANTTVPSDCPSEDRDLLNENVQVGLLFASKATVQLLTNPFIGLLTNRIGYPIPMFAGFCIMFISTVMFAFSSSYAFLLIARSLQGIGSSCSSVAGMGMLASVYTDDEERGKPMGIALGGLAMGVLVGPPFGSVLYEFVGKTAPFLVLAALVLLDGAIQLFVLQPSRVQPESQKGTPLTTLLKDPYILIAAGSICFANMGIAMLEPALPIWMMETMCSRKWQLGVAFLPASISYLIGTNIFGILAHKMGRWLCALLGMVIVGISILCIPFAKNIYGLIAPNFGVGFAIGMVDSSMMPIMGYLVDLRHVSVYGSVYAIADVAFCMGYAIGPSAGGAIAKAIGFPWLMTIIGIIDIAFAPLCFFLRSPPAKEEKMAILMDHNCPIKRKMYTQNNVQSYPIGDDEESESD

This assay concerns the target Synaptic vesicular amine transporter (Rattus norvegicus, UniProt Q01827). In words: Inhibition of VMAT2-mediated [3H]-dopamine uptake in rat striata isolated synaptic vesicles by liquid scintillation spectroscopy.
Turning to `c1ccc(CC[C@H]2CCC[C@@H](CCc3ccccc3)N2)cc1`, the affinity corresponds to a Ki of 43 nM.
The result for `c1ccc(CC[C@@H]2C[C@H](CCc3ccccc3)N2)cc1` reads 62 nM; that for `COc1ccc(CC[C@@H]2C[C@H](CCc3ccc(OC)cc3)N2)cc1`, 24 nM.
With `c1cc2c(cc1CC[C@@H]1C[C@H](CCc3ccc4c(c3)OCO4)N1)OCO2`, the Ki was 55 nM.
The result for `c1ccc(CC[C@@H]2C[C@@H](CCc3ccccc3)N2)cc1` (racemic) reads 48 nM; that for `COc1ccc(CC[C@@H]2C[C@@H](CCc3ccc(OC)cc3)N2)cc1` (racemic), 66 nM.
`c1cc2c(cc1CC[C@@H]1C[C@@H](CCc3ccc4c(c3)OCO4)N1)OCO2` (racemic) displayed a Ki of 31 nM.
